Where two headings read alike, the source gives them in different places.
How the values were obtained:
Experiment in all cases: Test B pre-/postemergence plant response
Format in all cases: in vivo
[1] = tested on: downy bromegrass (Bromus tectorum); conditions: for pest or weed control at 31 g/ha: 31 g ai/ha; for pest or weed control at 125 g/ha: 125 g ai/ha
In short: (§1)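 Visually scored on a 0 to 100 scale after 13 to 15 days in greenhouse versus controls. Treatments were preemergence on seeded loam/sand soil and postemergence on 1- to 4-leaf plants.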

corn (Zea mays) = conditions: for Corn plant response rating (crop injury, 0 = no effect, 100 = complete kill) at 31 g/ha: 31 g ai/ha; for Corn plant response rating (crop injury, 0 = no effect, 100 = complete kill) at 125 g/ha: 125 g ai/ha
In short: as §1

kochia (Kochia scoparia) = conditions: for pest or weed control at 31 g/ha: 31 g ai/ha; for pest or weed control at 125 g/ha: 125 g ai/ha
In short: as §1

[2] = tested on: green foxtail (Setaria viridis); conditions: for pest or weed control at 31 g/ha: 31 g ai/ha; for pest or weed control at 125 g/ha: 125 g ai/ha
In short: as §1

[3] = tested on: Italian ryegrass (Lolium multiflorum); conditions: for pest or weed control at 125 g/ha: 125 g ai/ha
In short: as §1

[4] = tested on: yellow nutsedge (Cyperus esculentus); conditions: for pest or weed control at 31 g/ha: 31 g ai/ha; for pest or weed control at 125 g/ha: 125 g ai/ha
In short: as §1

[5] = tested on: large crabgrass (Digitaria sanguinalis); conditions: for pest or weed control at 31 g/ha: 31 g ai/ha; for pest or weed control at 125 g/ha: 125 g ai/ha
In short: as §1

[6] = tested on: blackgrass (Alopecurus myosuroides); conditions: for pest or weed control at 31 g/ha: 31 g ai/ha; for pest or weed control at 125 g/ha: 125 g ai/ha
In short: as §1

[7] = tested on: cocklebur (Xanthium strumarium)
In short: as §1

[8] = 62 g ai/ha, postemergence, 0 is no effect, 100 is complete control, 13 to 15 days
[9] = Preemergence, 250 g ai/ha, 0 to 100 scale

## O=C1CCCC(O)=C1C(=O)c1cnc(-c2cccnc2)n(-c2ccccc2)c1=O [Compound 113, 5-[(2-hydroxy-6-oxo-1-cyclohexen-1-yl)carbonyl]-3-phenyl-2-(3-pyridinyl)-4(3H)-pyrimidone]
[1]; [8]
  Bromegrass, Downy plant response rating (0 to 100 scale): 60
[1]; Bromus tectorum, post-emergence, postemergence, scale 0 to 100, 0 is no effect, 100 is complete control, read-out: Plant response rating, Bromegrass, Downy
  pest or weed control at 31 g/ha: 5%
[1]; Bromus tectorum, post-emergence, Postemergence, scale 0 to 100 (0 no effect, 100 complete control), read-out: Plant response rating, Bromegrass, Downy
  pest or weed control at 125 g/ha: 80%
[1]; Bromus tectorum, post-emergence, Postemergence, 250 g ai/ha, scale 0 to 100 (0 no effect, 100 complete control), read-out: Plant response rating, Bromegrass, Downy
  pest or weed control at 250 g/ha: 90%
[1]; Bromus tectorum, pre-emergence, Preemergence, scale 0 to 100 (0 no effect, 100 complete control), read-out: Plant response rating, Bromegrass, Downy
  pest or weed control at 31 g/ha: 0%
[1]; Bromus tectorum, pre-emergence, Preemergence, 62 g ai/ha, scale 0 to 100, 0 no effect, 100 complete control, read-out: Plant response rating, Bromegrass, Downy
  pest or weed control at 62 g/ha: 10%
[1]; Bromus tectorum, pre-emergence, Preemergence, scale 0 to 100, 0 no effect, 100 complete control, read-out: Plant response rating, Bromegrass, Downy
  pest or weed control at 125 g/ha: 10%
[1]; [9]
  Bromegrass, Downy plant response rating: 10
Corn (Zea mays); [8]
  Corn plant response rating (0 to 100 scale): 60
Corn (Zea mays); [9]
  Corn plant response rating: 0
Corn (Zea mays); Zea mays, post-emergence, postemergence, scale 0 to 100, 0 is no effect, 100 is complete control
  Corn plant response rating (crop injury, 0 = no effect, 100 = complete kill) at 31 g/ha: 25%
Corn (Zea mays); Zea mays, post-emergence, Postemergence, scale 0 to 100 (0 no effect, 100 complete control)
  Corn plant response rating (crop injury, 0 = no effect, 100 = complete kill) at 125 g/ha: 80%
Corn (Zea mays); Zea mays, post-emergence, Postemergence, 250 g ai/ha, scale 0 to 100 (0 no effect, 100 complete control)
  Corn plant response rating (crop injury, 0 = no effect, 100 = complete kill) at 250 g/ha: 85%
Corn (Zea mays); Zea mays, pre-emergence, Preemergence, scale 0 to 100 (0 no effect, 100 complete control)
  Corn plant response rating (crop injury, 0 = no effect, 100 = complete kill) at 31 g/ha: 0%
Corn (Zea mays); Zea mays, pre-emergence, Preemergence, 62 g ai/ha, scale 0 to 100, 0 no effect, 100 complete control
  Corn plant response rating (crop injury, 0 = no effect, 100 = complete kill) at 62 g/ha: 0%
Corn (Zea mays); Zea mays, pre-emergence, Preemergence, scale 0 to 100, 0 no effect, 100 complete control
  Corn plant response rating (crop injury, 0 = no effect, 100 = complete kill) at 125 g/ha: 0%
Kochia (Kochia scoparia); [8]
  Kochia plant response rating (0 to 100 scale): 100
Kochia (Kochia scoparia); Bassia scoparia, post-emergence, postemergence, scale 0 to 100, 0 is no effect, 100 is complete control, read-out: Plant response rating, Kochia
  pest or weed control at 31 g/ha: 98%
Kochia (Kochia scoparia); Bassia scoparia, post-emergence, Postemergence, scale 0 to 100 (0 no effect, 100 complete control), read-out: Plant response rating, Kochia
  pest or weed control at 125 g/ha: 100%
Kochia (Kochia scoparia); Bassia scoparia, post-emergence, Postemergence, 250 g ai/ha, scale 0 to 100 (0 no effect, 100 complete control), read-out: Plant response rating, Kochia
  pest or weed control at 250 g/ha: 100%
Kochia (Kochia scoparia); Bassia scoparia, pre-emergence, Preemergence, scale 0 to 100 (0 no effect, 100 complete control), read-out: Plant response rating, Kochia
  pest or weed control at 31 g/ha: 80%
Kochia (Kochia scoparia); Bassia scoparia, pre-emergence, Preemergence, 62 g ai/ha, scale 0 to 100 (0 no effect, 100 complete control), read-out: Plant response rating, Kochia
  pest or weed control at 62 g/ha: 80%
Kochia (Kochia scoparia); Bassia scoparia, pre-emergence, Preemergence, scale 0 to 100, 0 no effect, 100 complete control, read-out: Plant response rating, Kochia
  pest or weed control at 125 g/ha: 85%
Kochia (Kochia scoparia); [9]
  Kochia plant response rating: 90
[2]; [8]
  Foxtail, Green plant response rating (0 to 100 scale): 80
[2]; [9]
  Foxtail, Green plant response rating: 100
[2]; Setaria viridis, post-emergence, postemergence, scale 0 to 100, 0 is no effect, 100 is complete control, read-out: Plant response rating, Foxtail, Green
  pest or weed control at 31 g/ha: 80%
[2]; Setaria viridis, post-emergence, Postemergence, scale 0 to 100 (0 no effect, 100 complete control), read-out: Plant response rating, Foxtail, Green
  pest or weed control at 125 g/ha: 80%
[2]; Setaria viridis, post-emergence, Postemergence, 250 g ai/ha, scale 0 to 100 (0 no effect, 100 complete control), read-out: Plant response rating, Foxtail, Green
  pest or weed control at 250 g/ha: 95%
[2]; Setaria viridis, pre-emergence, Preemergence, scale 0 to 100 (0 no effect, 100 complete control), read-out: Plant response rating, Foxtail, Green
  pest or weed control at 31 g/ha: 10%
[2]; Setaria viridis, pre-emergence, Preemergence, 62 g ai/ha, scale 0 to 100, 0 no effect, 100 complete control, read-out: Plant response rating, Foxtail, Green
  pest or weed control at 62 g/ha: 40%
[2]; Setaria viridis, pre-emergence, Preemergence, scale 0 to 100, 0 no effect, 100 complete control, read-out: Plant response rating, Foxtail, Green
  pest or weed control at 125 g/ha: 60%
[3]; [8]
  Ryegrass, Italian plant response rating (0 to 100 scale): 45
[3]; Lolium multiflorum, post-emergence, Postemergence, scale 0 to 100 (0 no effect, 100 complete control), read-out: Plant response rating, Ryegrass, Italian
  pest or weed control at 125 g/ha: 50%
[3]; Lolium multiflorum, post-emergence, Postemergence, 250 g ai/ha, scale 0 to 100 (0 no effect, 100 complete control), read-out: Plant response rating, Ryegrass, Italian
  pest or weed control at 250 g/ha: 85%
[3]; Lolium multiflorum, pre-emergence, Preemergence, 31 g ai/ha, scale 0 to 100 (0 no effect, 100 complete control), read-out: Plant response rating, Ryegrass, Italian
  pest or weed control at 31 g/ha: 0%
[3]; Lolium multiflorum, pre-emergence, Preemergence, 62 g ai/ha, scale 0 to 100 (0 no effect, 100 complete control), read-out: Plant response rating, Ryegrass, Italian
  pest or weed control at 62 g/ha: 5%
[3]; Lolium multiflorum, pre-emergence, Preemergence, scale 0 to 100, 0 no effect, 100 complete control, read-out: Plant response rating, Ryegrass, Italian
  pest or weed control at 125 g/ha: 5%
[3]; [9]
  Ryegrass, Italian plant response rating: 40
[4]; [8]
  Nutsedge, Yellow plant response rating (0 to 100 scale): 75
[4]; Cyperus, post-emergence, postemergence, scale 0 to 100, 0 is no effect, 100 is complete control, read-out: Plant response rating, Nutsedge, Yellow
  pest or weed control at 31 g/ha: 65%
[4]; Cyperus, post-emergence, Postemergence, scale 0 to 100 (0 no effect, 100 complete control), read-out: Plant response rating, Nutsedge, Yellow
  pest or weed control at 125 g/ha: 75%
[4]; Cyperus, post-emergence, Postemergence, 250 g ai/ha, scale 0 to 100 (0 no effect, 100 complete control), read-out: Plant response rating, Nutsedge, Yellow
  pest or weed control at 250 g/ha: 75%
[4]; Cyperus, pre-emergence, Preemergence, scale 0 to 100 (0 no effect, 100 complete control), read-out: Plant response rating, Nutsedge, Yellow
  pest or weed control at 31 g/ha: 65%
[4]; Cyperus, pre-emergence, Preemergence, 62 g ai/ha, scale 0 to 100 (0 no effect, 100 complete control), read-out: Plant response rating, Nutsedge, Yellow
  pest or weed control at 62 g/ha: 80%
[4]; Cyperus, pre-emergence, Preemergence, scale 0 to 100, 0 no effect, 100 complete control, read-out: Plant response rating, Nutsedge, Yellow
  pest or weed control at 125 g/ha: 90%
[4]; [9]
  Nutsedge, Yellow plant response rating: 90
[5]; [8]
  Crabgrass, Large plant response rating (0 to 100 scale): 90
[5]; Digitaria sanguinalis, post-emergence, postemergence, scale 0 to 100, 0 is no effect, 100 is complete control, read-out: Plant response rating, Crabgrass, Large
  pest or weed control at 31 g/ha: 85%
[5]; Digitaria sanguinalis, post-emergence, Postemergence, scale 0 to 100 (0 no effect, 100 complete control), read-out: Plant response rating, Crabgrass, Large
  pest or weed control at 125 g/ha: 95%
[5]; Digitaria sanguinalis, post-emergence, Postemergence, 250 g ai/ha, scale 0 to 100 (0 no effect, 100 complete control), read-out: Plant response rating, Crabgrass, Large
  pest or weed control at 250 g/ha: 95%
[5]; Digitaria sanguinalis, pre-emergence, Preemergence, scale 0 to 100 (0 no effect, 100 complete control), read-out: Plant response rating, Crabgrass, Large
  pest or weed control at 31 g/ha: 70%
[5]; Digitaria sanguinalis, pre-emergence, Preemergence, 62 g ai/ha, scale 0 to 100, 0 no effect, 100 complete control, read-out: Plant response rating, Crabgrass, Large
  pest or weed control at 62 g/ha: 98%
[5]; Digitaria sanguinalis, pre-emergence, Preemergence, scale 0 to 100, 0 no effect, 100 complete control, read-out: Plant response rating, Crabgrass, Large
  pest or weed control at 125 g/ha: 100%
[5]; [9]
  Crabgrass, Large plant response rating: 100
[6]; [8]
  Blackgrass plant response rating (0 to 100 scale): 0
[6]; Alopecurus myosuroides, post-emergence, 360 h, postemergence, scale 0 to 100, 0 is no effect, 100 is complete control, read-out: Plant response rating, Blackgrass
  pest or weed control at 31 g/ha: 0%
[6]; Alopecurus myosuroides, post-emergence, 360 h, Postemergence, scale 0 to 100 (0 no effect, 100 complete control), read-out: Plant response rating, Blackgrass
  pest or weed control at 125 g/ha: 5%
[6]; Alopecurus myosuroides, post-emergence, 360 h, Postemergence, 250 g ai/ha, scale 0 to 100 (0 no effect, 100 complete control), read-out: Plant response rating, Blackgrass
  pest or weed control at 250 g/ha: 5%
[6]; Alopecurus myosuroides, pre-emergence, 360 h, Preemergence, scale 0 to 100 (0 no effect, 100 complete control), read-out: Plant response rating, Blackgrass
  pest or weed control at 31 g/ha: 0%
[6]; Alopecurus myosuroides, pre-emergence, 360 h, Preemergence, 62 g ai/ha, scale 0 to 100, 0 no effect, 100 complete control, read-out: Plant response rating, Blackgrass
  pest or weed control at 62 g/ha: 0%
[6]; Alopecurus myosuroides, pre-emergence, 360 h, Preemergence, scale 0 to 100, 0 no effect, 100 complete control, read-out: Plant response rating, Blackgrass
  pest or weed control at 125 g/ha: 0%
[6]; [9]
  Blackgrass plant response rating: 20
[7]; [8]
  Cocklebur plant response rating (0 to 100 scale): 95
[7]; [9]
  Cocklebur plant response rating: 100
